Measured values taken from patent US20230165831A1, “METHOD AND COMPOSITION FOR RENDERING CANCER CELLS SUSCEPTIBLE TO TREATMENT BY TARGETED ONCOGENETIC DRIVERS” (IMPACT BIOLIFE SCIENCE, INC., priority 2021, published 2023).
Like-named read-outs stand apart in the source and are kept apart here.

Key:
[1] = tested on: lung adenocarcinoma line A549 cells; assay: CTG (CellTiter-Glo) cell viability assay, 6×6 combo matrix, 72 h, A549; settings: for Relatively Cell inhibition of vehicle control(%): A549;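 as to all read-outs here: luminescent ATP readout with CellTiter-Glo after compound exposure, used to assess growth inhibition and combination synergy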
Description: (§1) To measure the cell inhibition effect of compounds and synergy effect of test articles on ten (10) cell lines using standard CTG assay.
(§2) 7) Using complete cell medium, adjust the volume of the suspension to achieve a cell concentration.
(§3) A549, T47D, SK-OV-3, MKN45, SK-Hep-1, HT-29, Capan-1, 786-O and LNCaP cell line, for compounds and vehicle groups, the seeding density of cell lines is 3000 cells/80 µL per well. For blank groups, add 100 µL medium. For PBS groups, add 100 µL PBS.
(§4) 8) Incubate the U87MG, A549, T47D, SK-OV-3, MKN45, SK-Hep-1, HT-29, Capan-1, 786-O and LNCaP cells overnight at 37° C./5% CO2.
(§5) Solid compound of cis-platinum was solubilized in PBS to a stock solution of 3.333 mM.
(§6) Final volume is 100 µL per well at this point.
(§7) 5) Incubate the plates at 37° C./5% CO2 for 72 hours.
(§8) 1) Incubate the plates at room temperature and away from light for 30 minutes.
(§9) 3) Add 100 µL /well of CellTiter-Glo® Reagent in each well. Avoid light.
(§10) 4) Mix contents for 2 minutes on an orbital shaker.
(§11) 5) Incubate plate at room temperature for 10 minutes to stabilize the luminescent signal.
6) Read plates in Envision.

[2] = tested on: breast cancer line T47D cells; assay: CTG (CellTiter-Glo) cell viability assay, 6×6 combo matrix, 72 h, T47D; settings: Homo sapiens;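 also: luminescence read-out after 72 h at 37 °C under 5% CO2, with medium-only wells as blanks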
Description: as §1, §2
(§12) b. A549, T47D, SK-OV-3, MKN45, SK-Hep-1, HT-29, Capan-1, 786-O and LNCaP cell line, for compounds and vehicle groups, the seeding density of cell lines is 3000 cells/80 µL per well. For blank groups, add 100 µL medium. For PBS groups, add 100 µL PBS.
as §4, §5, §6, §7, §8, §9, §10, §11
6) Read plates in Envision.

[3] = tested on: kidney cancer line 786-O cells; assay: CTG (CellTiter-Glo) cell viability assay, 6×6 combo matrix, 72 h, 786-O; settings: Homo sapiens;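 also: luminescence read-out after adding CellTiter-Glo reagent, with cells incubated at 37 °C under 5% CO2 during compound exposure, part of a ten cell line synergy study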
[4] = tested on: prostate adenocarcinoma line LNCap cells; assay: CTG (CellTiter-Glo) cell viability assay, 6×6 combo matrix, 72 h, LNCaP; settings: Homo sapiens, LNCaP;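 also: luminescence signal read after adding CellTiter-Glo reagent, with cells exposed to compounds for 72 h at 37 °C under 5% CO2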
Description: as §1, §2, §12, §4, §5, §6, §7, §8, §9, §10, §11
6) Read plates in Envision.

[5] = tested on: ovarian cancer line SK-OV3 cells; assay: CTG (CellTiter-Glo) cell viability assay, 6×6 combo matrix, 72 h, SK-OV-3; settings: SK-OV-3;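 also: luminescent signal read after CellTiter-Glo addition, cells exposed to compounds for 72 h at 37 °C under 5% CO2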
Description: as §1, §2, §3, §4, §5, §6, §7, §8, §9, §10, §11
6) Read plates in Envision.

[6] = Homo sapiens, A549, read-out: Relatively Cell inhibition of vehicle control(%)

Work on `O=c1c(O)c(-c2cc(O)c(O)c(O)c2)oc2cc(O)cc(O)c12` [myricetin] yielded an inhibition at 0.8 µM [1, 6] of -3.15%, an inhibition at 4 µM [1, 6] of 0.85% and an inhibition at 20 µM [1, 6] of 7.42%. For the same compound, the inhibition at 100 µM [1, 6] was 40.3%, the “Relatively Cell inhibition of vehicle control(%)” value ([1]; Myr 0.8 µM only (taxol matrix)) was -0.98% and the “Relatively Cell inhibition of vehicle control(%)” value ([1]; Myr 4 µM only (taxol matrix)) was 3.22%. For the same compound, the “Relatively Cell inhibition of vehicle control(%)” value ([1]; Myr 20 µM only (taxol matrix)) was 9.01%, the “Relatively Cell inhibition of vehicle control(%)” value ([1]; Myr 100 µM only (taxol matrix)) was 41.11% and the inhibition at 0.8 µM ([2]; read-out: Relatively Cell inhibition of vehicle control(%), T47D, 0.8 µM myricetin only (cisplatin 0)) was -1.72%. It also gave an inhibition at 0.8 µM ([2]; read-out: Relatively Cell inhibition of vehicle control(%), T47D, 0.8 µM myricetin only (doxorubicin 0)) of 8.68%, an inhibition at 0.8 µM ([2]; read-out: Relatively Cell inhibition of vehicle control(%), T47D, 0.8 µM myricetin only (taxol 0)) of 6.31% and an inhibition at 0.8 µM ([2]; read-out: Relatively Cell inhibition of vehicle control(%), T47D, 0.8 µM myricetin only (topotecan 0)) of 1.93%. It also gave an inhibition at 4 µM ([2]; read-out: Relatively Cell inhibition of vehicle control(%), T47D, 4 µM myricetin only (cisplatin 0)) of -0.88%, an inhibition at 4 µM ([2]; read-out: Relatively Cell inhibition of vehicle control(%), T47D, 4 µM myricetin only (doxorubicin 0)) of 1.01% and an inhibition at 4 µM ([2]; read-out: Relatively Cell inhibition of vehicle control(%), T47D, 4 µM myricetin only (taxol 0)) of 0.2%. For the same compound, the inhibition at 4 µM ([2]; read-out: Relatively Cell inhibition of vehicle control(%), T47D, 4 µM myricetin only (topotecan 0)) was -2.25%, the inhibition at 20 µM ([2]; read-out: Relatively Cell inhibition of vehicle control(%), T47D, 20 µM myricetin only (cisplatin 0)) was 2.08% and the inhibition at 20 µM ([2]; read-out: Relatively Cell inhibition of vehicle control(%), T47D, 20 µM myricetin only (doxorubicin 0)) was 8.28%. For the same compound, the inhibition at 20 µM ([2]; read-out: Relatively Cell inhibition of vehicle control(%), T47D, 20 µM myricetin only (taxol 0)) was 5.67%, the inhibition at 20 µM ([2]; read-out: Relatively Cell inhibition of vehicle control(%), T47D, 20 µM myricetin only (topotecan 0)) was 3.54% and the inhibition at 100 µM ([2]; read-out: Relatively Cell inhibition of vehicle control(%), T47D, 100 µM myricetin only (cisplatin 0)) was 25.4%. For the same compound, the inhibition at 100 µM ([2]; read-out: Relatively Cell inhibition of vehicle control(%), T47D, 100 µM myricetin only (doxorubicin 0)) was 24.5%, the inhibition at 100 µM ([2]; read-out: Relatively Cell inhibition of vehicle control(%), T47D, 100 µM myricetin only (taxol 0)) was 30% and the inhibition at 100 µM ([2]; read-out: Relatively Cell inhibition of vehicle control(%), T47D, 100 µM myricetin only (topotecan 0)) was 22.2%. It also gave an inhibition at 0.8 µM ([3]; 786-0, read-out: Relatively Cell inhibition of vehicle control, myricetin 0.8 µM only (cisplatin table)) of 0.79%, an inhibition at 0.8 µM ([3]; 786-0, read-out: Relatively Cell inhibition of vehicle control, myricetin 0.8 µM only (doxorubicin table)) of 0.86% and an inhibition at 0.8 µM ([3]; 786-0, read-out: Relatively Cell inhibition of vehicle control, myricetin 0.8 µM only (taxol table)) of 0.33%. The inhibition at 0.8 µM ([3]; 786-0, read-out: Relatively Cell inhibition of vehicle control, myricetin 0.8 µM only (topotecan table)) was 0.12%, the inhibition at 4 µM ([3]; 786-0, read-out: Relatively Cell inhibition of vehicle control, myricetin 4 µM only (cisplatin table)) was 2.54% and the inhibition at 4 µM ([3]; 786-0, read-out: Relatively Cell inhibition of vehicle control, myricetin 4 µM only (doxorubicin table)) was 4.47%. The inhibition at 4 µM ([3]; 786-0, read-out: Relatively Cell inhibition of vehicle control, myricetin 4 µM only (taxol table)) was 2.6%, the inhibition at 4 µM ([3]; 786-0, read-out: Relatively Cell inhibition of vehicle control, myricetin 4 µM only (topotecan table)) was 4.03% and the inhibition at 20 µM ([3]; 786-0, read-out: Relatively Cell inhibition of vehicle control, myricetin 20 µM only (cisplatin table)) was 10.8%. The inhibition at 20 µM ([3]; 786-0, read-out: Relatively Cell inhibition of vehicle control, myricetin 20 µM only (doxorubicin table)) was 11.2%, the inhibition at 20 µM ([3]; 786-0, read-out: Relatively Cell inhibition of vehicle control, myricetin 20 µM only (taxol table)) was 9.84% and the inhibition at 20 µM ([3]; 786-0, read-out: Relatively Cell inhibition of vehicle control, myricetin 20 µM only (topotecan table)) was 10.4%. For the same compound, the inhibition at 100 µM ([3]; 786-0, read-out: Relatively Cell inhibition of vehicle control, myricetin 100 µM only (cisplatin table)) was 43.4%, the inhibition at 100 µM ([3]; 786-0, read-out: Relatively Cell inhibition of vehicle control, myricetin 100 µM only (doxorubicin table)) was 43.1% and the inhibition at 100 µM ([3]; 786-0, read-out: Relatively Cell inhibition of vehicle control, myricetin 100 µM only (taxol table)) was 42%. For the same compound, the inhibition at 100 µM ([3]; 786-0, read-out: Relatively Cell inhibition of vehicle control, myricetin 100 µM only (topotecan table)) was 44.8%, the inhibition at 0.8 µM ([4]; read-out: Relatively Cell inhibition of vehicle control(%), myricetin 0.8 µM only (cisplatin plate)) was -1.65% and the inhibition at 0.8 µM ([4]; read-out: Relatively Cell inhibition of vehicle control(%), myricetin 0.8 µM only (doxorubicin plate)) was -0.32%. For the same compound, the inhibition at 0.8 µM ([4]; read-out: Relatively Cell inhibition of vehicle control(%), myricetin 0.8 µM only (taxol plate)) was -2.06%, the inhibition at 0.8 µM ([4]; read-out: Relatively Cell inhibition of vehicle control(%), myricetin 0.8 µM only (topotecan plate)) was -2.79% and the inhibition at 4 µM ([4]; read-out: Relatively Cell inhibition of vehicle control(%), myricetin 4 µM only (cisplatin plate)) was 0.26%. For the same compound, the inhibition at 4 µM ([4]; read-out: Relatively Cell inhibition of vehicle control(%), myricetin 4 µM only (doxorubicin plate)) was -3.26%, the inhibition at 4 µM ([4]; read-out: Relatively Cell inhibition of vehicle control(%), myricetin 4 µM only (taxol plate)) was -5.5% and the inhibition at 4 µM ([4]; read-out: Relatively Cell inhibition of vehicle control(%), myricetin 4 µM only (topotecan plate)) was 8.5%. It also gave an inhibition at 20 µM ([4]; read-out: Relatively Cell inhibition of vehicle control(%), myricetin 20 µM only (cisplatin plate)) of -3.11%, an inhibition at 20 µM ([4]; read-out: Relatively Cell inhibition of vehicle control(%), myricetin 20 µM only (doxorubicin plate)) of -2.66% and an inhibition at 20 µM ([4]; read-out: Relatively Cell inhibition of vehicle control(%), myricetin 20 µM only (taxol plate)) of 4.8%. For the same compound, the inhibition at 20 µM ([4]; read-out: Relatively Cell inhibition of vehicle control(%), myricetin 20 µM only (topotecan plate)) was 6.5%, the inhibition at 100 µM ([4]; read-out: Relatively Cell inhibition of vehicle control(%), myricetin 100 µM only (cisplatin plate)) was 27.2% and the inhibition at 100 µM ([4]; read-out: Relatively Cell inhibition of vehicle control(%), myricetin 100 µM only (doxorubicin plate)) was 21.1%. For the same compound, the inhibition at 100 µM ([4]; read-out: Relatively Cell inhibition of vehicle control(%), myricetin 100 µM only (taxol plate)) was 31.4%, the inhibition at 100 µM ([4]; read-out: Relatively Cell inhibition of vehicle control(%), myricetin 100 µM only (topotecan plate)) was 30.1% and the “Relatively Cell inhibition of vehicle control(%)” value ([5]; Myr 0.8 µM only (cisplatin matrix)) was 2.08%. For the same compound, the “Relatively Cell inhibition of vehicle control(%)” value ([5]; Myr 0.8 µM only (doxorubicin matrix)) was 0.36%, the “Relatively Cell inhibition of vehicle control(%)” value ([5]; Myr 0.8 µM only (taxol matrix)) was 0.71% and the “Relatively Cell inhibition of vehicle control(%)” value ([5]; Myr 0.8 µM only (topotecan matrix)) was 4.27%. The “Relatively Cell inhibition of vehicle control(%)” value ([5]; Myr 4 µM only (cisplatin matrix)) was 2.94%, the “Relatively Cell inhibition of vehicle control(%)” value ([5]; Myr 4 µM only (doxorubicin matrix)) was 1.70% and the “Relatively Cell inhibition of vehicle control(%)” value ([5]; Myr 4 µM only (taxol matrix)) was 0.87%. The “Relatively Cell inhibition of vehicle control(%)” value ([5]; Myr 4 µM only (topotecan matrix)) was 3.31%, the “Relatively Cell inhibition of vehicle control(%)” value ([5]; Myr 20 µM only (cisplatin matrix)) was 9.41% and the “Relatively Cell inhibition of vehicle control(%)” value ([5]; Myr 20 µM only (doxorubicin matrix)) was 1.89%. For the same compound, the “Relatively Cell inhibition of vehicle control(%)” value ([5]; Myr 20 µM only (taxol matrix)) was 7.54% and the “Relatively Cell inhibition of vehicle control(%)” value ([5]; Myr 20 µM only (topotecan matrix)) was 0.29%.
